Measurements published in ChEMBL document CHEMBL1201862, “PubChem BioAssay data set” (2004).
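Results reflect a 48-hour exposure of cells in 96-well plates to compound at five concentrations. GI50: concentration for 50% inhibition of growth.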 Calls of active or inactive are those of the source. Cut-off read from the data, not from the text of the source: active = GI50 up to about 1.1 µM and inactive = higher.

Columns and labels:
Test in all cases: NCI tumour cell line growth inhibition, 48 h
SR = system: SR
SK-MEL-28 = system: SK-MEL-28
M14 = system: M14
NCI-H460 = system: NCI-H460
LOX IMVI = system: LOX IMVI
NCI-H226 = system: NCI-H226
TK-10 = system: TK-10
HT-29 = system: HT-29
A498 = system: A498
BT-549 = system: BT-549
U-251 = system: U-251
CAKI-1 = system: CAKI-1
OVCAR-4 = system: OVCAR-4
COLO 205 = system: COLO 205
NCI-H522 = system: NCI-H522
OVCAR-5 = system: OVCAR-5
Malme-3M = system: Malme-3M
MDA-N = system: MDA-N
DU-145 = system: DU-145

Measured: GI50

COc1cc(OC)cc(Oc2nc3c(N)cc(C(F)(F)F)cc3nc2-c2ccccc2)c1
inactive: SR 11.1 µM | SK-MEL-28 61.8 µM | M14 49.3 µM | NCI-H460 30.2 µM | LOX IMVI 20.4 µM | NCI-H226 43.2 µM | TK-10 60.5 µM | HT-29 15.9 µM | A498 > 100 µM | BT-549 > 100 µM | U-251 44.8 µM | CAKI-1 26.9 µM | OVCAR-4 78.9 µM | COLO 205 20.1 µM

CCOP(=O)(OCC)/C(C#N)=C/c1ccco1
inactive: SR > 100 µM | SK-MEL-28 > 100 µM | M14 > 100 µM | NCI-H460 > 100 µM | LOX IMVI > 100 µM | NCI-H226 > 100 µM | TK-10 > 100 µM | NCI-H522 > 100 µM | HT-29 > 100 µM | A498 > 100 µM | OVCAR-5 > 100 µM | U-251 > 100 µM | Malme-3M > 100 µM | CAKI-1 > 100 µM | OVCAR-4 > 100 µM | COLO 205 > 100 µM

CCOC(=O)Cc1nnc2n(-c3ccccc3)c(=O)c3ccccc3n12
inactive: SR > 100 µM | SK-MEL-28 55.7 µM | MDA-N > 100 µM | M14 > 100 µM | NCI-H460 > 100 µM | LOX IMVI > 100 µM | NCI-H226 > 100 µM | TK-10 > 100 µM | NCI-H522 77.4 µM | HT-29 > 100 µM | A498 > 100 µM | OVCAR-5 > 100 µM | DU-145 > 100 µM | U-251 > 100 µM | Malme-3M > 100 µM | CAKI-1 20.2 µM | OVCAR-4 > 100 µM | COLO 205 83.8 µM

COC(=O)C1=C(c2ccc(Cl)cc2)C(O)NC(NN)=N1 (configuration not stated)
inactive: SR > 100 µM | SK-MEL-28 > 100 µM | M14 > 100 µM | NCI-H460 > 100 µM | LOX IMVI > 100 µM | NCI-H226 > 100 µM | TK-10 > 100 µM | NCI-H522 > 100 µM | HT-29 > 100 µM | OVCAR-5 > 100 µM | U-251 > 100 µM | Malme-3M > 100 µM | CAKI-1 > 100 µM | OVCAR-4 > 100 µM

C=CC(C)(C)/C(=C\CO[Si](C(C)C)(C(C)C)C(C)C)C(=O)N(C)c1ccccc1I
inactive: SR 6.81 µM | SK-MEL-28 14.2 µM | MDA-N 16.4 µM | M14 15.8 µM | NCI-H460 13.6 µM | LOX IMVI 14.3 µM | TK-10 13.4 µM | NCI-H522 5.62 µM | HT-29 13.4 µM | A498 20.3 µM | OVCAR-5 13.9 µM | DU-145 13.9 µM | U-251 11.5 µM | CAKI-1 19 µM | OVCAR-4 23 µM | COLO 205 16.4 µM

CC(C)[Si](Oc1ccc(CC2N(C(=O)c3ccc([N+](=O)[O-])cc3)C(CCc3ccccc3)CC2(C)C=O)cc1)(C(C)C)C(C)C (configuration not stated)
inactive: SR 2.58 µM | SK-MEL-28 > 100 µM | LOX IMVI > 100 µM | NCI-H226 15.5 µM | TK-10 > 100 µM | NCI-H522 > 100 µM | A498 > 100 µM | OVCAR-5 > 100 µM | BT-549 21.3 µM | DU-145 61.1 µM | U-251 20.5 µM | Malme-3M > 100 µM | CAKI-1 > 100 µM | OVCAR-4 > 100 µM | COLO 205 > 100 µM

O=C1/C(=C\c2ccc([N+](=O)[O-])cc2)Sc2scc(-c3ccc(O)c(O)c3)[n+]21
inactive: SR 2.62 µM | SK-MEL-28 12.3 µM | MDA-N 5.41 µM | M14 5.81 µM | NCI-H460 4.06 µM | LOX IMVI 5.61 µM | NCI-H226 17.8 µM | TK-10 2.26 µM | NCI-H522 1.76 µM | HT-29 3.31 µM | A498 > 10 µM | OVCAR-5 15.3 µM | DU-145 13.5 µM | U-251 6.4 µM | CAKI-1 2.77 µM | OVCAR-4 10.6 µM | COLO 205 2.34 µM

Cc1ccc(C)c(COCCOCn2c(=O)[nH]c(=O)c3cc(Br)ccc32)c1
inactive: SR > 100 µM | SK-MEL-28 39.5 µM | MDA-N > 100 µM | M14 > 100 µM | NCI-H460 > 100 µM | LOX IMVI > 100 µM | NCI-H226 > 100 µM | TK-10 55.3 µM | NCI-H522 62.4 µM | HT-29 98.2 µM | A498 > 100 µM | OVCAR-5 > 100 µM | DU-145 90.8 µM | U-251 > 100 µM | Malme-3M 71.8 µM | CAKI-1 81.1 µM | OVCAR-4 47.8 µM | COLO 205 > 100 µM

COc1ccc(/N=C2\S/C(=N\C(=N\c3ccccc3)SCc3ccccc3)N(c3ccccc3)\C2=N/c2ccc(OC)cc2)cc1
inactive: SR > 100 µM | SK-MEL-28 62.4 µM | MDA-N > 100 µM | M14 72.1 µM | NCI-H226 > 100 µM | TK-10 > 100 µM | HT-29 > 100 µM | BT-549 > 100 µM | Malme-3M > 100 µM | COLO 205 > 100 µM

Cc1cn(CCCC2=NCCCN2)c(=O)[nH]c1=O
inactive: SK-MEL-28 > 100 µM | MDA-N > 100 µM | M14 > 100 µM | NCI-H460 > 100 µM | LOX IMVI > 100 µM | NCI-H226 > 100 µM | TK-10 > 100 µM | NCI-H522 > 100 µM | HT-29 > 100 µM | A498 > 100 µM | OVCAR-5 > 100 µM | DU-145 > 100 µM | U-251 > 100 µM | Malme-3M > 100 µM | CAKI-1 > 100 µM | OVCAR-4 > 100 µM | COLO 205 > 100 µM

O=C1c2cc3c(cc2CC12Cc1ccccc1C2)CCC3
inactive: SR 35.9 µM | SK-MEL-28 57.4 µM | MDA-N 27.3 µM | M14 23.2 µM | NCI-H460 25.8 µM | LOX IMVI 18.6 µM | NCI-H226 23.4 µM | TK-10 42.5 µM | NCI-H522 27.4 µM | HT-29 21.5 µM | A498 34.4 µM | OVCAR-5 52.6 µM | DU-145 52 µM | U-251 37.6 µM | Malme-3M 28.1 µM | CAKI-1 15.5 µM | OVCAR-4 50.2 µM | COLO 205 18.6 µM

Cc1ccccc1OC(C)C(=O)NN1C(=O)CC(=O)N(c2ccccc2)C1=S (configuration not stated)
inactive: SK-MEL-28 > 100 µM | M14 52 µM | NCI-H460 45.8 µM | LOX IMVI 54.3 µM | NCI-H226 41.9 µM | TK-10 63 µM | NCI-H522 77.4 µM | HT-29 76 µM | A498 36 µM | OVCAR-5 > 100 µM | BT-549 > 100 µM | DU-145 51.1 µM | U-251 62.7 µM | Malme-3M > 100 µM | CAKI-1 > 100 µM | OVCAR-4 > 100 µM | COLO 205 68.4 µM

CN(C(=O)C1CCCCCC1=O)c1ccccc1Cl (configuration not stated)
inactive: SK-MEL-28 > 100 µM | M14 > 100 µM | NCI-H460 > 100 µM | LOX IMVI > 100 µM | NCI-H226 > 100 µM | TK-10 > 100 µM | NCI-H522 > 100 µM | HT-29 > 100 µM | A498 > 100 µM | OVCAR-5 > 100 µM | BT-549 > 100 µM | DU-145 > 100 µM | U-251 > 100 µM | Malme-3M > 100 µM | CAKI-1 > 100 µM | OVCAR-4 > 100 µM | COLO 205 > 100 µM

Cc1ccc(C)n1-c1ccccc1C1C=Cn2c(=O)oc3c(OC(C)C)c(OC(C)C)c(O)c1c32 (configuration not stated)
inactive: SK-MEL-28 28.6 µM | M14 22.9 µM | NCI-H460 22.3 µM | LOX IMVI 14.2 µM | NCI-H226 15.8 µM | TK-10 55.2 µM | NCI-H522 7.06 µM | HT-29 18.2 µM | A498 43.8 µM | OVCAR-5 > 100 µM | BT-549 43.5 µM | DU-145 90.4 µM | U-251 25.8 µM | Malme-3M 33.7 µM | CAKI-1 22 µM | OVCAR-4 32.6 µM | COLO 205 13.9 µM

CC(C)[Si](OC1=CCCCCC12C(=O)N(C)c1ccccc12)(C(C)C)C(C)C (configuration not stated)
inactive: SR 29.9 µM | SK-MEL-28 23.6 µM | MDA-N 28.4 µM | M14 23.3 µM | NCI-H460 17.6 µM | LOX IMVI 19.5 µM | NCI-H226 20.2 µM | TK-10 29 µM | NCI-H522 16.9 µM | HT-29 20.5 µM | A498 15.8 µM | OVCAR-5 16.9 µM | DU-145 15 µM | U-251 18.5 µM | Malme-3M 20.2 µM | CAKI-1 16.5 µM | OVCAR-4 24.7 µM | COLO 205 18.9 µM

CC1OC(=O)c2ccccc2NC1=O (configuration not stated)
inactive: SR > 100 µM | SK-MEL-28 > 100 µM | M14 > 100 µM | NCI-H460 > 100 µM | LOX IMVI > 100 µM | NCI-H226 > 100 µM | TK-10 > 100 µM | NCI-H522 > 100 µM | HT-29 > 100 µM | A498 > 100 µM | OVCAR-5 > 100 µM | BT-549 > 100 µM | DU-145 > 100 µM | U-251 > 100 µM | Malme-3M > 100 µM | CAKI-1 > 100 µM | OVCAR-4 > 100 µM | COLO 205 > 100 µM

CSC(Cc1ccc2c(c1)Sc1ccccc1O2)=[N+]1CCOCC1
inactive: SR 3.37 µM | SK-MEL-28 80.7 µM | MDA-N 54.5 µM | M14 72.9 µM | NCI-H460 48.2 µM | LOX IMVI 80.4 µM | NCI-H226 55.8 µM | TK-10 > 100 µM | HT-29 43.9 µM | A498 46.5 µM | OVCAR-5 > 100 µM | DU-145 > 100 µM | U-251 48.1 µM | Malme-3M 26.4 µM | CAKI-1 > 100 µM | OVCAR-4 > 100 µM | COLO 205 > 100 µM
